According to patent US11130769B2 (Prelude Therapeutics Incorporated, priority 2018, dated 2021):

Key:
MCL-1 = MCL-1 (Homo sapiens (Human), UniProt Q07820); assay: Cell free Mcl-1:Bim affinity assay (fluorescence polarization competition); type: binding; conditions: 15 nM MCL-1, 5 nM FITC-Bim, 1 hour at room temperature; class symbols; read-out: BIM_Ki
Method in brief: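 Compounds competed with FITC-labelled Bim peptide (5 nM) for MCL-1 (15 nM) in HEPES/NaCl buffer with 1% DMSO, 1 h at room temperature. Fluorescence polarization (535 nm emission) gave % inhibition versus DMSO and positive controls; IC50 from 10-point curves, converted to Ki by the Nikolovska-Coleska equation.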

H929 cells = assay: Cell viability assay (H929 10 FBS); type: cell-based; conditions: Homo sapiens, NCI-H929, 24 hours, read-out: H929_10FBS IC50
Method in brief: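 H929 cells, 4000/well, in RPMI 1640 with 10% FBS, sodium pyruvate, HEPES and glucose were exposed to compound 24 h at 37 °C. Viability read as luminescence after 30-60 min at RT with CellTiter-Glo or ATPlite 1 Step.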

Sequence of MCL-1 (Q07820 whole entry): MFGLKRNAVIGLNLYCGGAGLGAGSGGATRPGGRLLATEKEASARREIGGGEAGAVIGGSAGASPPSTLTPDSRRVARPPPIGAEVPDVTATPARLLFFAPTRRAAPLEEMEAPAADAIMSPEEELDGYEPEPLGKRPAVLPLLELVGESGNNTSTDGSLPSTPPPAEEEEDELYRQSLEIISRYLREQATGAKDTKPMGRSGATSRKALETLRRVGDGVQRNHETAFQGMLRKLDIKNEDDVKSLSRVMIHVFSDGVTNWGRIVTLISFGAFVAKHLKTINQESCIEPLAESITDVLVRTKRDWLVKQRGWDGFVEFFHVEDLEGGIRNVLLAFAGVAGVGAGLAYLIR

| SMILES | Ki (MCL-1) | IC50 (H929 cells) |
| --- | --- | --- |
| CN(C)CCO[C@H]1/C=C/COC(C)(C)C(=O)NS(=O)(=O)c2ccc3c(c2)N(C[C@@H]2CC[C@H]21)C[C@@]1(CCCc2cc(Cl)ccc21)CO3 [Example 65, (3R,6R,7S,8E,22S)-6′-Chloro-7-[2-(dimethylamino)ethoxy]-12,12-dimethyl-15,15-dioxo-spiro[11,20-dioxa-15-thia-1,14-diazatetracyclo[14.7.2.03,6.019,24]pentacosa-8,16,18,24-tetraene-22,1′-tetralin]-13-one] | < 0.001 µM | < 0.5 µM |
| CO[C@@H]1/C=C/CNCC(C)(C)C(=O)NS(=O)(=O)c2ccc3c(c2)N(C[C@@H]2CC[C@H]21)C[C@@]1(CCCc2cc(Cl)ccc21)CO3 [Example 68, (3R,6R,7R,8E,23S)-6′-Chloro-7-methoxy-13,13-dimethyl-16,16-dioxo-spiro[21-oxa-16-thia-1,11,15-triazatetracyclo[15.7.2.03,6.020,25]hexacosa[8,17(26),18,20(25)]tetraene-23,1′-tetralin]-14-one] | 0.001 to 0.1 µM | > 1 µM |
| CCO[C@@H]1CCN(C(=O)O[C@H]2/C=C/COC3(CCC3)C(=O)NS(=O)(=O)c3ccc4c(c3)N(C[C@@H]3CC[C@H]32)C[C@@]2(CCCc3cc(Cl)ccc32)CO4)C1 [Example 228, [(3R,6R,7S,8E,22S)-6′-Chloro-12,12-(1,3-propylene)-13,15,15-trioxo-spiro[11,20-dioxa-15-thia-1,14-diazatetracyclo[14.7.2.03,6.019,24]pentacosa-8,16,18,24-tetraene-22,1′-tetralin]-7-yl] (3R)-3-ethoxypyrrolidine-1-carboxylate] | < 0.001 µM | < 0.5 µM |
| CNCCNC(=O)O[C@H]1/C=C/COC(C)(C)C(=O)NS(=O)(=O)c2ccc3c(c2)N(C[C@@H]2CC[C@H]21)C[C@@]1(CCCc2cc(Cl)ccc21)CO3 [Example 157, [(3R,6R,7S,8E,22S)-6′-Chloro-12,12-dimethyl-13,15,15-trioxo-spiro[11,20-dioxa-15-thia-1,14-diazatetracyclo[14.7.2.03,6.019,24]pentacosa-8,16,18,24-tetraene-22,1′-tetralin]-7-yl] N-[2-(methylamino)ethyl]carbamate] | < 0.001 µM | < 0.5 µM |
| CO[C@@H]1CCN(C(=O)O[C@H]2/C=C/COC(C)(C)C(=O)NS(=O)(=O)c3ccc4c(c3)N(C[C@@H]3CC[C@H]32)C[C@@]2(CCCc3cc(Cl)ccc32)CO4)C1 [Example 58, [(3R,6R,7S,8E,22S)-6′-Chloro-12,12-dimethyl-13,15,15-trioxo-spiro[11,20-dioxa-15-thia-1,14-diazatetracyclo[14.7.2.03,6.019,24]pentacosa-8,16,18,24-tetraene-22,1′-tetralin]-7-yl] (3R)-3-methoxypyrrolidine-1-carboxylate] | < 0.001 µM | < 0.5 µM |
| CN1CCN(CCO[C@H]2/C=C/COC(C)(C)C(=O)NS(=O)(=O)c3ccc4c(c3)N(C[C@@H]3CC[C@H]32)C[C@@]2(CCCc3cc(Cl)ccc32)CO4)CC1 [Example 259, (3R,6R,7S,8E,22S)-6′-Chloro-12,12-dimethyl-7-[2-(4-methylpiperazin-1-yl)ethoxy]-15,15-dioxo-spiro[11,20-dioxa-15-thia-1,14-diazatetracyclo[14.7.2.03,6.019,24]pentacosa-8,16,18,24-tetraene-22,1′-tetralin]-13-one] | < 0.001 µM | < 0.5 µM |
| CO[C@H]1/C=C/CCCCC(=O)NS(=O)(=O)c2ccc3c(c2)N(C[C@@H]2CC[C@H]21)C[C@@]1(CCCc2cc(Cl)ccc21)CO3 [Example 83, (3R,6R,7S,8E,23S)-6′-Chloro-7-methoxy-16,16-dioxo-spiro[21-oxa-16-thia-1,15-diazatetracyclo[15.7.2.03,6.020,25]hexacosa-8,17,19,25-tetraene-23,1′-tetralin]-14-one] | 0.001 to 0.1 µM | > 1 µM |
| CC(C)N1CCN(C(=O)O[C@H]2/C=C/COC(C)(C)C(=O)NS(=O)(=O)c3ccc4c(c3)N(C[C@@H]3CC[C@H]32)C[C@@]2(CCCc3cc(Cl)ccc32)CO4)CC1 [Example 186, [(3R,6R,7S,8E,22S)-6′-Chloro-12,12-dimethyl-13,15,15-trioxo-spiro[11,20-dioxa-15-thia-1,14-diazatetracyclo[14.7.2.03,6.019,24]pentacosa-8,16,18,24-tetraene-22,1′-tetralin]-7-yl] 4-isopropylpiperazine-1-carboxylate] | < 0.001 µM | < 0.5 µM |
| CC1(C)OC/C=C/[C@H](OCC(=O)N2CCCC2)[C@@H]2CC[C@H]2CN2C[C@@]3(CCCc4cc(Cl)ccc43)COc3ccc(cc32)S(=O)(=O)NC1=O [Example 283, (3R,6R,7S,8E,22S)-6′-Chloro-12,12-dimethyl-15,15-dioxo-7-(2-oxo-2-pyrrolidin-1-yl-ethoxy)spiro[11,20-dioxa-15-thia-1,14-diazatetracyclo[14.7.2.03,6.019,24]pentacosa-8,16,18,24-tetraene-22,1′-tetralin]-13-one] | < 0.001 µM | < 0.5 µM |
| CC1(C)OC/C=C/[C@H](OC(=O)NC2CC2)[C@@H]2CC[C@H]2CN2C[C@@]3(CCCc4cc(Cl)ccc43)COc3ccc(cc32)S(=O)(=O)NC1=O [Example 188, [(3R,6R,7S,8E,22S)-6′-Chloro-12,12-dimethyl-13,15,15-trioxo-spiro[11,20-dioxa-15-thia-1,14-diazatetracyclo[14.7.2.03,6.019,24]pentacosa-8,16,18,24-tetraene-22,1′-tetralin]-7-yl] N-cyclopropylcarbamate] | < 0.001 µM | < 0.5 µM |
| CN[C@H]1CCN(C(=O)O[C@H]2/C=C/COC(C)(C)C(=O)NS(=O)(=O)c3ccc4c(c3)N(C[C@@H]3CC[C@H]32)C[C@@]2(CCCc3cc(Cl)ccc32)CO4)C1 [Example 163, [(3R,6R,7S,8E,22S)-6′-Chloro-12,12-dimethyl-13,15,15-trioxo-spiro[11,20-dioxa-15-thia-1,14-diazatetracyclo[14.7.2.03,6.019,24]pentacosa-8,16,18,24-tetraene-22,1′-tetralin]-7-yl] (3S)-3-(methylamino)pyrrolidine-1-carboxylate] | < 0.001 µM | < 0.5 µM |
| CN(C)C(=O)O[C@H]1/C=C/COC(C)(C)C(=O)NS(=O)(=O)c2ccc3c(c2)N(C[C@@H]2CC[C@H]21)C[C@@]1(CCCc2cc(Cl)ccc21)CO3 [Example 34, [(3R,6R,7S,8E,22S)-6′-Chloro-12,12-dimethyl-3,5,5-trioxo-spiro[11,20-dioxa-15-thia-1,14-diazatetracyclo[14.7.2.03,6.019,24]pentacosa-8,16,18,24-tetraene-22,1′-tetralin]-7-yl] N,N-dimethylcarbamate] | < 0.001 µM | < 0.5 µM |
| O=C1NS(=O)(=O)c2ccc3c(c2)N(C[C@@H]2CC[C@H]2[C@H](O)/C=C/COC12CC2)C[C@@]1(CCCc2cc(Cl)ccc21)CO3 [Example 38, (3R,6R,7R,8E,22S)-6′-Chloro-7-hydroxy-12,12-ethylene-15,15-dioxo-spiro[11,20-dioxa-15-thia-1,14-diazatetracyclo[14.7.2.03,6.019,24]pentacosa[8,16(25),17,19(24)]tetraene-22,1′-tetralin]-13-one] | < 0.001 µM | < 0.5 µM |
| CC1(C)OC/C=C/[C@H](OCCN2CCCC2)[C@@H]2CC[C@H]2CN2C[C@@]3(CCCc4cc(Cl)ccc43)COc3ccc(cc32)S(=O)(=O)NC1=O [Example 66, (3R,6R,7S,8E,22S)-6′-Chloro-12,12-dimethyl-15,15-dioxo-7-(2-pyrrolidin-1-ylethoxy)spiro[11,20-dioxa-15-thia-1,14-diazatetracyclo[14.7.2.03,6.019,24]pentacosa-8,16,18,24-tetraene-22,1′-tetralin]-13-one] | < 0.001 µM | < 0.5 µM |
| CO[C@@H]1/C=C/CNC2(CC2)C(=O)NS(=O)(=O)c2ccc3c(c2)N(C[C@@H]2CC[C@H]21)C[C@@]1(CCCc2cc(Cl)ccc21)CO3 [Example 119, (3R,6R,7R,8E,22S)-6′-Chloro-7-methoxy-12,12-ethylene-15,15-dioxo-spiro[20-oxa-15-thia-1,11,14-triazatetracyclo[14.7.2.03,6.019,24]pentacosa[8,16(25),17,19(24)]tetraene-22,1′-tetralin]-13-one] | 0.001 to 0.1 µM | < 1 µM |
| CN(C(=O)O[C@H]1/C=C/COC(C)(C)C(=O)NS(=O)(=O)c2ccc3c(c2)N(C[C@@H]2CC[C@H]21)C[C@@]1(CCCc2cc(Cl)ccc21)CO3)[C@H]1CCOC1 [Example 202, [(3R,6R,7S,8E,22S)-6′-Chloro-12,12-dimethyl-13,15,15-trioxo-spiro[11,20-dioxa-15-thia-1,14-diazatetracyclo[14.7.2.03,6.019,24]pentacosa-8,16,18,24-tetraene-22,1′-tetralin]-7-yl] N-methyl-N-[(3S)-tetrahydrofuran-3-yl]carbamate] | < 0.001 µM | < 0.5 µM |
| CCOC1CN(C(=O)O[C@H]2/C=C/CN(C)C3(CCC3)C(=O)NS(=O)(=O)c3ccc4c(c3)N(C[C@@H]3CC[C@H]32)C[C@@]2(CCCc3cc(Cl)ccc32)CO4)C1 [Example 244, [(3R,6R,7S,8E,22S)-6′-Chloro-11-methyl-12,12-(1,3-propylene)-13,15,15-trioxo-spiro[20-oxa-15-thia-1,11,14-triazatetracyclo[14.7.2.03,6.019,24]pentacosa-8,16,18,24-tetraene-22,1′-tetralin]-7-yl] 3-ethoxyazetidine-1-carboxylate] | < 0.001 µM | < 0.5 µM |
